Experimental data taken from patent US20240124483A1, “Methods for the Treatment of Fibrotic Disease” (SHY Therapeutics, LLC, priority 2021, published 2024).
Read-outs that look alike come from different tables or passages of the source.

Assays:
Rho-A = Rho-A (Homo sapiens (Human), UniProt P61586); assay: Ras GTP Binding Domain Inhibition Assay, Rho-A
Protocol: (§1) A Ras Superfamily Activity Assay (as disclosed in International Application No. PCT/US2018/038613, filed Jun. 20, 2018, which is incorporated by reference in its entirety) was used as a specific assay to evaluate compounds against the following for the following Ras Superfamily proteins: KRas wild type, KRas Q61H mutant, KRas G12C mutant, KRas G12D mutant, Rac-1, and Rho-A.
(§2) Buffer-I: • 25 mM Tris-HCl, pH 7.4 • 27 mM KCl • 137 mM NaCl • 1 mM MgCl2 • 1 mM DTT
(§3) Buffer-II: • 50 mM Tris-HCl, pH 7.0 • 1 mM MgCl2 • 1 mM DTT
(§4) The small GTPases proteins: KRas wild type. KRas Q61H mutant, KRas G12C mutant, KRas G12D mutants, Rac-1, and Rho-A were expressed as His-tagged proteins. In addition, the Guanosine nucleotide Exchange Factor (GEF) Sos protein (residues 556-1049) was expressed as a His-tagged protein. In cells, the guanine nucleotide exchange factor Sos protein promotes activation of Ras proteins by stimulating an exchange of GDP for GTP. The inclusion of Sos to the Ras GTP binding domain inhibition assay may be considered as an alternative representation of physiological cellular conditions for evaluating the inhibitory activity of some of the tested small molecules.
(§5) For the assay, all purified small GTPases proteins were diluted in Buffer-I or Buffer-II to a final concentration of 10-30 μg/mL. 200 μL of each diluted protein was added to a nickel-coated 96-well plate and incubated overnight at 4° C. Then the protein solution was discarded and 200 μL of Buffer-I or Buffer-II was added to each well in the presence of 1% DMSO. Compounds to be tested were added to the protein-coated wells at final concentration of 20 μM, and incubated for 3 hours at room temperature with and without 10-30 μg/mL of Sos added to the final hour of the incubation. When performing IC50 measurements a serial dilution of all tested concentrations was added. Then Cy3-GTP or Cy5-GTP was added to each well to a final concentration of 100 nM. The labeled GTP was incubated for 45 minutes at room temperature. Following GTP incubation, wells were washed 3× in Buffer-I or Buffer-II and 200 μL of Buffer-I or Buffer-II was added to each well. Following washes, the amount of bound labeled-GTP was measured using a SpectraMax M3 (Molecular Devices).

KRas G12D mutant = KRas G12D mutant (Homo sapiens (Human), UniProt P01116, G12D); assay: Ras GTP Binding Domain Inhibition Assay, KRas G12D mutant; details: for inhibition at 20 µM: Table 7; for KRas G12D mutant + SOS: % inh. / KRas G12D mutant: % inh.: 20 uM, Table 8
Sequence of KRas G12D mutant (P01116 other isoform, or with tags, fused parts or gaps G12D): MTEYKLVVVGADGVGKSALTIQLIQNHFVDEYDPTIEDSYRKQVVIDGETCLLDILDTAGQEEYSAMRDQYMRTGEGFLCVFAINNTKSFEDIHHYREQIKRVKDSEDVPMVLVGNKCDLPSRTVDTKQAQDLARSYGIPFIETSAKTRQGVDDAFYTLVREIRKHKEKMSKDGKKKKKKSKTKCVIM
Protocol: as §1, §2, §3, §4, §5

KRas G12C mutant = KRas G12C mutant (Homo sapiens (Human), UniProt P01116, G12C); assay: Ras GTP Binding Domain Inhibition Assay, KRas G12C mutant
Sequence of KRas G12C mutant (P01116 other isoform, or with tags, fused parts or gaps G12C): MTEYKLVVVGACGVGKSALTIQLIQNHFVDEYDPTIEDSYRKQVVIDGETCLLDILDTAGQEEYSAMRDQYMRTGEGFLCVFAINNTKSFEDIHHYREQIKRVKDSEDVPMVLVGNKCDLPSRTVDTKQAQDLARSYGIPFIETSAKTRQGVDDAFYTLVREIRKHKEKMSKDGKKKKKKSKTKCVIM
Protocol: as §1, §2, §3, §4, §5

MAPK p38 = MAPK p38 Activation Assay in Panc-1 (western blot); format: cell-based, Human; set-up: key: Y = yes; N = No; details: at 10 μM
Protocol: Cell lines: Human tumor-derived pancreatic cancer cell line Panc-1 and mouse muscle myoblast C2C12 were purchased from American Type Culture Collection and grown in complete DMEM-High Glucose, supplemented with penicillin (100 U/mL), streptomycin (100 μg/mL), and 10% heat-inactivated FBS at 37° C. in a humidified incubator with 5% CO2.
Method: Cells were plated at 350000 cells/well density in a 12-well plate, allowed 3 hours to adhere to the plate, then starved in the appropriate medium in the presence of 0.5% FBS overnight. The small molecules to be tested were added to the cells in the final concentration of 10 μM in the presence of 0.3% DMSO for 3 hours incubation at 37° C. For IC50 value determination, serial dilutions of compounds were added to cells under the same conditions. Next, Panc-1 cells were stimulated with 10 ng/ml TGF-b1 for 1 hour, and C2C12 cells were stimulated with 10 ng/ml TGF-b1 for 20 minutes (recombinant human TGF-b1, R&D Systems). After stimulation cells were lysed with lysis buffer containing 1% Triton X-100, EDTA, and Halt™ Protease & Phosphatase Inhibitor Cocktail (Thermo Scientific). Protein concentration was assessed by BCA protein assay (Thermo Scientific). Phosphorylation level of MAPK p38 was determined by western blot.
Western blot protocol: Equal amounts of protein (15-50 μg) were separated by SDS-PAGE and transferred to nitrocellulose membranes (Invitrogen by Thermo Fisher Scientific). The membrane was stained with Ponceau S Stain (Boston BioProducts) to verify uniform protein loading. Membranes were blocked with 10% milk and phosphorylation levels of Smad2/Smad3 were assessed by incubating overnight at 4° C. with the following antibody: Phospho-p38 MAPK (Thr180/Tyr182), from Cell Signaling Technology. Then the membranes were incubated with HRP-conjugated secondary antibody (Jackson Immunoresearch, West Grove, PA). Bands were incubated in Amersham ECL Prime Western Blotting Detection Reagent (GE Healthcare) and visualized using the ChemiDoc MP imaging system (Bio-Rad).

[1] = without SOS, read-out: Rho-A: % inh.
[2] = + SOS, read-out: KRas G12D mutant + SOS: % inh.
[3] = without SOS, read-out: KRas G12D mutant: % inh.
[4] = + SOS, read-out: KRas G12C mutant + SOS: % inh.
[5] = without SOS, read-out: KRas G12C mutant: % inh.

Sequence of Rho-A (P61586 whole entry, species assumed, the tested form may be a part): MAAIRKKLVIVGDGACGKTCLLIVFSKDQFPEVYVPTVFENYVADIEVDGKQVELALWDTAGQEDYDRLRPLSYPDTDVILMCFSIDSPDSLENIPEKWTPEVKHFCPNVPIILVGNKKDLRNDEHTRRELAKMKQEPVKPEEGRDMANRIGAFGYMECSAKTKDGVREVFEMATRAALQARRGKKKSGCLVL

Row | SMILES | inhibition at 20 µM (Rho-A; [1]) [%] | inhibition at 20 µM (KRas G12D mutant; [2]) [%] | KRas G12D mutant + SOS: % inh. (KRas G12D mutant; + SOS) | inhibition at 20 µM (KRas G12D mutant; [3]) [%] | KRas G12D mutant: % inh. (KRas G12D mutant; without SOS) | inhibition at 20 µM (KRas G12C mutant; [4]) [%] | inhibition at 20 µM (KRas G12C mutant; [5]) [%] | inhibition at 20 µM (Rho-A; + SOS, read-out: Rho-A + SOS: % inh.) [%] | Activation of MAPK p38 in PANC-1 (MAPK p38)
1 | COCCn1ccc(-c2sc3nc(-c4nccn4C)nc(NC[C@H]4CC[C@H]4COC)c3c2C)n1 (racemic) [Compound 38, rac-6-(1-(2-Methoxyethyl)-1H-pyrazol-3-yl)-N-(((1S,2R)-2-(methoxymethyl)cyclobutyl)methyl)-5-methyl-2-(1-methyl-1H-imidazol-2-yl)thieno[2,3-d]pyrimidin-4-amine] | 26 to 45 | 76 to 100 | D (D = 76-100% inhibition) | 26 to 45 | B (B = 26-45% inhibition) | 76 to 100 | 46 to 75 | – | Y
2 | COCCn1ccc(-c2sc3nc(-c4nccn4C)nc(N[C@@H]4CC[C@H](OC)C4)c3c2C)n1 (racemic) [Compound 39, rac-N-((1R,3S)-3-Methoxycyclopentyl)-6-(1-(2-methoxyethyl)-1H-pyrazol-3-yl)-5-methyl-2-(1-methyl-1H-imidazol-2-yl)thieno[2,3-d]pyrimidin-4-amine] | 46 to 75 | 76 to 100 | D (D = 76-100% inhibition) | 46 to 75 | C (C = 46-75% inhibition) | 76 to 100 | 76 to 100 | – | Y
3 | COCCNc1nc(-c2nccn2C)nc2sc(-c3ccccc3)c(-c3ccccc3)c12 [Compound 1, N-(2-Methoxyethyl)-2-(1-methyl-1H-imidazol-2-yl)-5,6-diphenylthieno[2,3-d]pyrimidin-4-amine] | 46 to 75 | 1 to 25 | A (A = 1-25% inhibition) | 76 to 100 | D (D = 76-100% inhibition) | – | 46 to 75 | – | N
4 | COCCN(C)c1nc(-c2nccn2C)nc2sc(-c3ccccc3)c(-c3ccccc3)c12 [Compound 2, N-(2-Methoxyethyl)-N-methyl-2-(1-methyl-1H-imidazol-2-yl)-5,6-diphenylthieno[2,3-d]pyrimidin-4-amine] | 26 to 45 | – | – | 46 to 75 | C (C = 46-75% inhibition) | – | 26 to 45 | – | Y
5 | COCCCNc1nc(-c2nccn2C)nc2sc(-c3ccccc3)c(-c3ccccc3)c12 [Compound 3, N-(3-Methoxypropyl)-2-(1-methyl-1H-imidazol-2-yl)-5,6-diphenylthieno[2,3-d]pyrimidin-4-amine] | 46 to 75 | 1 to 25 | A (A = 1-25% inhibition) | 46 to 75 | C (C = 46-75% inhibition) | – | 46 to 75 | – | Y
6 | COCCNc1nc(-c2nccn2C)nc2sc(-c3ccccc3)c(-c3ccccc3Cl)c12 [Compound 4, 5-(2-Chlorophenyl)-N-(2-methoxyethyl)-2-(1-methyl-1H-imidazol-2-yl)-6-phenylthieno[2,3-d]pyrimidin-4-amine] | 26 to 45 | – | – | 26 to 45 | B (B = 26-45% inhibition) | – | 26 to 45 | – | Y

Now from value to compound, other results behind:

Row | inhibition at 20 µM (Rho-A; [1]) [%] | inhibition at 20 µM (KRas G12D mutant; [2]) [%] | KRas G12D mutant + SOS: % inh. (KRas G12D mutant; + SOS) | inhibition at 20 µM (KRas G12D mutant; [3]) [%] | KRas G12D mutant: % inh. (KRas G12D mutant; without SOS) | inhibition at 20 µM (KRas G12C mutant; [4]) [%] | inhibition at 20 µM (KRas G12C mutant; [5]) [%] | inhibition at 20 µM (Rho-A; + SOS, read-out: Rho-A + SOS: % inh.) [%] | SMILES | Activation of MAPK p38 in PANC-1 (MAPK p38)
7 | 0 | 46 to 75 | C (C = 46-75% inhibition) | 1 to 25 | A (A = 1-25% inhibition) | 76 to 100 | 26 to 45 | – | COc1cccc(-c2sc3nc(-c4nccn4C)nc(N[C@@H]4CC[C@@H](OC)C4)c3c2-c2ccccc2)c1F (racemic) [Compound 41, 6-(2-Fluoro-3-methoxyphenyl)-N-((1R,3R)-3-methoxycyclopentyl)-2-(1-methyl-1H-imidazol-2-yl)-5-phenylthieno[2,3-d]pyrimidin-4-amine] | Y
8 | 26 to 45 | 76 to 100 | D (D = 76-100% inhibition) | 1 to 25 | A (A = 1-25% inhibition) | 76 to 100 | 26 to 45 | – | COc1cccc(-c2sc3nc(-c4nccn4C)nc(N[C@@H]4CC[C@@H](OC)C4)c3c2C)c1F (racemic) [Compound 43, rac-6-(2-Fluoro-3-methoxyphenyl)-N-((1R,3R)-3-methoxycyclopentyl)-5-methyl-2-(1-methyl-1H-imidazol-2-yl)thieno[2,3-d]pyrimidin-4-amine] | Y
9 | 0 | 46 to 75 | C (C = 46-75% inhibition) | 76 to 100 | D (D = 76-100% inhibition) | 76 to 100 | 26 to 45 | – | COc1cc(-c2sc3nc(-c4nccn4C)nc(N[C@@H]4CC[C@H](OC)C4)c3c2-c2ccccc2)ccn1 (racemic) [Compound 44, rac-N-((1R,3S)-3-Methoxycyclopentyl)-6-(2-methoxypyridin-4-yl)-2-(1-methyl-1H-imidazol-2-yl)-5-phenylthieno[2,3-d]pyrimidin-4-amine] | N
10 | 46 to 75 | 76 to 100 | D (D = 76-100% inhibition) | 46 to 75 | C (C = 46-75% inhibition) | 76 to 100 | 46 to 75 | – | COc1cc(-c2sc3nc(-c4nccn4C)nc(N[C@@H]4CC[C@@H](OC)C4)c3c2-c2ccccc2)ccn1 (racemic) [Compound 47, N-((1R,3R)-3-Methoxycyclopentyl)-6-(2-methoxypyridin-4-yl)-2-(1-methyl-1H-imidazol-2-yl)-5-phenylthieno[2,3-d]pyrimidin-4-amine] | N
11 | 26 to 45 | 46 to 75 | C (C = 46-75% inhibition) | 46 to 75 | C (C = 46-75% inhibition) | 76 to 100 | 46 to 75 | 26 to 45 | CO[C@@H]1CC[C@H](Nc2nc(-c3nccn3C)nc3sc(-c4ccn(C(C)C)n4)c(-c4ccccc4)c23)C1 (single isomer, unassigned) [Compound 11] | Y
